What follows are compounds tested on Mouse ear edema (assay: In vivo bioassay (mouse ear edema model, arachidonic acid)). Conditions: oral in 0.5% methylcellulose 1 hour before arachidonic acid; ear thickness after 1 hour, compared with control.
Set-up: species or system ICR mouse
Method: 3. In Vivo Bioassay (Mouse Ear Edema Model)
The inside of the right ear of an ICR mouse (6 weeks old) was treated with 2 mg of arachidonic acid dissolved in 20 μL of acetone for 1 hour to induce an inflammation.
After 1 hour, the difference of thickness T (%) between the arachidonic acid-treated right ear and the non-treated left ear was measured with a microgauge.
Further, myeloperoxidase (MPO) activity was measured in order to measure the amount of neutrophil penetrated into the tissue as a primary marker for induced inflammation. The tissue obtained from the arachidonic acid-treated right ear was homogenized in a 50 mM phosphate buffer solution (pH 6.0) containing 0.5% hexadecyltrimethylammonium bromide (HTAB), centrifuged and then the MPO activity (MPO %) of the supernatant was measured.
To measure in vivo activity of each test compound, each compound was dissolved in 0.5% methylcellulose (10 mL/kg) and orally administered to a mouse 1 hour before treatment with arachidonic acid. Then, arachidonic acid was treated for 1 hour and the thickness of ear and MPO activity were measured. In vivo activity of each test compound was estimated by comparing the test result with that of a control which was treated only with arachidonic acid, without the test compound.

Structure (SMILES) | Mouse ear edema model (in vivo assay): Thickness
COc1ccc(CNc2ccc3c(c2)C=CC(C)(CN(C)S(=O)(=O)c2ccccc2)O3)cc1 (centres unmarked) [1-1-1] | Thickness 62%
CN(CC1(C)C=Cc2cc(NCc3ccc(F)cc3)ccc2O1)S(=O)(=O)c1ccccc1 (centres unmarked) [1-1-10] | Thickness 60%
CC(c1cc2ccccc2s1)N(O)C(N)=O (centres unmarked) [reference compound] | 67%

Same assay, conditions: oral in 0.5% methylcellulose 1 hour before arachidonic acid; myeloperoxidase activity of ear tissue, compared with control

Structure (SMILES) | Mouse ear edema model (in vivo assay): MPO
COc1ccc(CNc2ccc3c(c2)C=CC(C)(CN(C)S(=O)(=O)c2ccccc2)O3)cc1 (centres unmarked) [1-1-1] | MPO 34%
CN(CC1(C)C=Cc2cc(NCc3ccc(F)cc3)ccc2O1)S(=O)(=O)c1ccccc1 (centres unmarked) [1-1-10] | MPO 27%
CC(c1cc2ccccc2s1)N(O)C(N)=O (centres unmarked) [reference compound] | 38%

These compounds were tested on LTB4 in Rat basophilic leukemia (RBL-1) cells (assay: LTB4 cell-based assay (RBL-1 cells, A23187, ELISA)). Conditions: A23187 10 μM, LTB4 by ELISA.
Method: Rat basophilic leukemia (RBL-1) cells were inoculated at a 24-well plate to a final concentration of 7.5×10^5 cells/well and incubated for 2 hours, so that they adhered to the bottom of the plate. […] The well plate was centrifuged at 1,500 g for 20 minutes to isolate the supernatant and then the amount of LTB4 of the supernatant was measured with ELISA analysis.

Structure (SMILES) | Cell-based assay (% inhibition, at 1 μM) [%]
COc1ccc(CNc2ccc3c(c2)C=CC(C)(CN(C)S(=O)(=O)c2ccccc2)O3)cc1 (centres unmarked) [1-1-1] | 82
CN(CC1(C)C=Cc2cc(NCc3ccc(C#N)cc3)ccc2O1)S(=O)(=O)c1ccccc1 (centres unmarked) [1-1-7] | 71
CN(CC1(C)C=Cc2cc(NCc3ccc(F)cc3)ccc2O1)S(=O)(=O)c1ccccc1 (centres unmarked) [1-1-10] | 81
CN(CC1(C)C=Cc2cc(NCc3cccc(F)c3)ccc2O1)S(=O)(=O)c1ccccc1 (centres unmarked) [1-1-11] | 58
COc1ccc(S(=O)(=O)N(C)CC2(C)C=Cc3cc(NCc4ccc(C)s4)ccc3O2)cc1 (centres unmarked) [1-1-40] | 38
COc1ccc(S(=O)(=O)N(C)CC2(C)C=Cc3cc(NCc4ccsc4)ccc3O2)cc1 (centres unmarked) [1-1-51] | 36
CCOC(OCC)c1ccc(CNc2ccc3c(c2)C=CC(C)(CN(C)S(=O)(=O)c2ccc(C)cc2)O3)cc1 (centres unmarked) [1-1-103] | 52
CN(CC1(C)C=Cc2cc(NCc3ccsc3)ccc2O1)S(=O)(=O)c1ccc(C(C)(C)C)cc1 (centres unmarked) [1-1-132] | 35
COc1ccc(CNc2ccc3c(c2)C=CC(C)(CN(C)S(=O)(=O)Cc2ccccc2)O3)cc1 (centres unmarked) [1-1-163] | 43
COc1ccc(CNc2ccc3c(c2)C=CC(C)(CN(C)S(=O)(=O)c2ccc(Cl)cc2)O3)cc1 (centres unmarked) [1-1-217] | 56
COc1ccc(CNc2ccc3c(c2)C=CC(C)(CN(C)S(=O)(=O)c2ccc(F)cc2)O3)cc1 (centres unmarked) [1-1-244] | 41
Cc1ccc(CNc2ccc3c(c2)C=CC(C)(CN(C)S(=O)(=O)c2ccc(F)cc2)O3)s1 (centres unmarked) [1-1-256] | 63
CCCS(=O)(=O)N(C)CC1(C)C=Cc2cc(NCc3ccc(OC)cc3)ccc2O1 (centres unmarked) [1-1-298] | 47
Cc1cc2c(cc1NCc1ccc(C#N)cc1)C=CC(C)(CN(C)S(=O)(=O)c1ccccc1)O2 (centres unmarked) [1-2-7] | 61
Cc1cc2c(cc1NCc1cccs1)C=CC(C)(CN(C)S(=O)(=O)c1ccccc1)O2 (centres unmarked) [1-2-23] | 74

Each compound was assayed against T1, 5-LO (Homo sapiens, UniProt P09917) (assay: 5-Lipoxygenase enzyme assay, bioassay using FOX reagent). Conditions: test compound 1 μM; lysate from 5-LO expressed insect cells; arachidonic acid 40 μM.
T1 construct: made in house; host or cells: insect cells (crude lysate)
T1 sequence (P09917 1-674): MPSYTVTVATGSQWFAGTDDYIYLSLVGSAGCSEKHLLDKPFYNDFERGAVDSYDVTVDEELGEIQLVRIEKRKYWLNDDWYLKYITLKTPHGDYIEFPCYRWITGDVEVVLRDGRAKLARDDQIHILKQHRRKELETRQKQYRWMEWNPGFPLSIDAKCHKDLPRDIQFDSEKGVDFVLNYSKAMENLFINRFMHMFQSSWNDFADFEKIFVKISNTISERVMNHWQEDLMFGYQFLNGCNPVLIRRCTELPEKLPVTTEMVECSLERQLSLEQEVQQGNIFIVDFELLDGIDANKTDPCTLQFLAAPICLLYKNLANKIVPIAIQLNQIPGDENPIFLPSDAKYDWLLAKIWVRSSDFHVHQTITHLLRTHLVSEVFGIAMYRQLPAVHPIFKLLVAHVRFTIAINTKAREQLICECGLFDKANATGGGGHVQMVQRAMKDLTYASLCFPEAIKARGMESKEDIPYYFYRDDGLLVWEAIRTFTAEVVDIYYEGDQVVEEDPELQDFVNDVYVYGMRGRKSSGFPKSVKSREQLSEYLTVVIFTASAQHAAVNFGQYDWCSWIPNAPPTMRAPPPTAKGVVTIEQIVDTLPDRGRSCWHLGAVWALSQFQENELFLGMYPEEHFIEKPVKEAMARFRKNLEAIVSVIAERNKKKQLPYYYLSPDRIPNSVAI
Type: biochemical
Method: 1. 5-Lipoxygenase enzyme assay
1) Bioassay Using FOX Reagent
Each test compound (final concentration=1 μM) was added to a lysate (7 μg) obtained from 5-LO expressed insect cells and reaction was performed at room temperature for 3 minutes. Then, arachidonic acid (40 μM) was added as enzyme substrate and reaction was further performed at room temperature for 4 minutes. 100 μL of a FOX reagent (sulfuric acid 25 mM, xylenol orange 100 μM, FeSO4 100 μM, methanol/water=9:1) was added thereto and then, after 5 minutes, absorbance was measured at 575 nm.

Structure (SMILES) | 5-LO enzyme assay (% inhibition, at 1 μM) [%] | inhibition at 1 µM [%]
CN(CC1(C)C=Cc2cc(NCc3ccsc3)ccc2O1)S(=O)(=O)c1ccccc1 (centres unmarked) [1-1-24] |  | 44
COc1ccc(S(=O)(=O)N(C)CC2(C)C=Cc3cc(NCc4ccc(C)s4)ccc3O2)cc1 (centres unmarked) [1-1-40] | 45 | 
COc1ccc(S(=O)(=O)N(C)CC2(C)C=Cc3cc(NCc4ccsc4)ccc3O2)cc1 (centres unmarked) [1-1-51] | 48 | 
CCOC(OCC)c1ccc(CNc2ccc3c(c2)C=CC(C)(CN(C)S(=O)(=O)c2ccc(C)cc2)O3)cc1 (centres unmarked) [1-1-103] | 63 | 
CN(CC1(C)C=Cc2cc(NCc3ccsc3)ccc2O1)S(=O)(=O)c1ccc(C(C)(C)C)cc1 (centres unmarked) [1-1-132] | 47 | 
CN(CC1(C)C=Cc2cc(NCc3ccncc3)ccc2O1)S(=O)(=O)Cc1ccccc1 (centres unmarked) [1-1-183] |  | 45
COc1ccc(CNc2ccc3c(c2)C=CC(C)(CN(C)S(=O)(=O)c2ccc(F)cc2)O3)cc1 (centres unmarked) [1-1-244] | 67 | 
Cc1ccc(CNc2ccc3c(c2)C=CC(C)(CN(C)S(=O)(=O)c2ccc(F)cc2)O3)s1 (centres unmarked) [1-1-256] | 79 | 
Cc1cc2c(cc1NCc1ccc(C#N)cc1)C=CC(C)(CN(C)S(=O)(=O)c1ccccc1)O2 (centres unmarked) [1-2-7] | 79 | 
Cc1cc2c(cc1NCc1cccs1)C=CC(C)(CN(C)S(=O)(=O)c1ccccc1)O2 (centres unmarked) [1-2-23] | 80 | 

Continued, values first:

5-LO enzyme assay (% inhibition, at 1 μM) [%] | inhibition at 1 µM [%] | Structure (SMILES)
86 |  | COc1ccc(CNc2ccc3c(c2)C=CC(C)(CN(C)S(=O)(=O)c2ccccc2)O3)cc1 (centres unmarked) [1-1-1]
80 |  | CN(CC1(C)C=Cc2cc(NCc3ccc(C#N)cc3)ccc2O1)S(=O)(=O)c1ccccc1 (centres unmarked) [1-1-7]
87 |  | CN(CC1(C)C=Cc2cc(NCc3ccc(F)cc3)ccc2O1)S(=O)(=O)c1ccccc1 (centres unmarked) [1-1-10]
73 |  | CN(CC1(C)C=Cc2cc(NCc3cccc(F)c3)ccc2O1)S(=O)(=O)c1ccccc1 (centres unmarked) [1-1-11]
61 |  | COc1ccc(CNc2ccc3c(c2)C=CC(C)(CN(C)S(=O)(=O)Cc2ccccc2)O3)cc1 (centres unmarked) [1-1-163]
70 |  | COc1ccc(CNc2ccc3c(c2)C=CC(C)(CN(C)S(=O)(=O)c2ccc(Cl)cc2)O3)cc1 (centres unmarked) [1-1-217]
73 |  | CCCS(=O)(=O)N(C)CC1(C)C=Cc2cc(NCc3ccc(OC)cc3)ccc2O1 (centres unmarked) [1-1-298]
